Test results taken from PubChem BioAssay (NCI).
Several values for one entry are separate records, joined by “and”; a condition that tells them apart may be missing. Equal entries are not always repeated.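 Interpolation was linear, between the two tested concentrations surrounding the appropriate level; five concentrations were tested over 48 hours in 96-well plates. At the GI50, growth is halved. TGI denotes the concentration required for complete inhibition of growth.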

Key:
Assay in all cases: inhibition of tumour cell growth, NCI panel, 48 h
[1] = test system: HL-60(TB) leukemia
[2] = test system: M14 melanoma
[3] = test system: NCI-H23 lung
[4] = test system: NCI-H460 lung
[5] = test system: OVCAR-4 ovarian
[6] = test system: SK-OV-3 ovarian
[7] = test system: TK-10 renal
[8] = test system: UACC-257 melanoma
[9] = test system: UACC-62 melanoma
[10] = test system: UO-31 renal

O=C1c2ccc3c4c(ccc(c24)C(=O)N1CCCNCc1ccccc1Cl)C(=O)N(CCCNCc1ccccc1Cl)C3=O
GI50 [1]: 0.904 µM
TGI [1]: 2.11 µM
GI50 [2]: 0.2 µM
TGI [2]: 0.685 µM
GI50 [3]: 0.217 µM
TGI [3]: 0.86 µM
GI50 [4]: 0.212 µM
TGI [4]: 0.817 µM
GI50 [5]: 0.0891 µM
TGI [5]: 0.182 µM
GI50 [6]: 0.862 µM
TGI [6]: 3.18 µM
GI50 [7]: 0.179 µM
TGI [7]: 0.724 µM
GI50 [8]: 0.125 µM
TGI [8]: 0.334 µM
GI50 [9]: 0.671 µM
TGI [9]: 1.43 µM

CC(C)(c1ccccc1)c1ccc(Oc2ccc(C#N)c(C#N)c2)cc1
TGI [1]: > 100 µM
TGI [2]: > 100 µM
TGI [3]: > 100 µM
GI50 [4]: > 100 µM
TGI [4]: > 100 µM
TGI [5]: > 100 µM
GI50 [6]: > 100 µM
TGI [6]: > 100 µM
GI50 [7]: > 100 µM
TGI [7]: > 100 µM
GI50 [9]: > 100 µM
TGI [9]: > 100 µM
TGI [10]: 40.5 µM

CCSc1nc(SCC)c2c(-c3ccc(OC)c(OC)c3)c(C#N)c(SCC)nc2n1
GI50 [1]: 81.1 µM
TGI [1]: > 100 µM
GI50 [2]: 56.2 µM
TGI [2]: > 100 µM
GI50 [3]: 14.9 µM
TGI [3]: 53.1 µM
GI50 [4]: 21.8 µM
TGI [4]: > 100 µM
GI50 [5]: 31.8 µM
TGI [5]: > 100 µM
GI50 [6]: > 100 µM
TGI [6]: > 100 µM
GI50 [7]: 17.5 µM
TGI [7]: 53.3 µM
GI50 [8]: 39.4 µM
TGI [8]: > 100 µM
GI50 [9]: 18.5 µM
TGI [9]: 43.4 µM
GI50 [10]: 32.9 µM
TGI [10]: > 100 µM

COc1ccc(Cl)c(Nc2nc3ccccc3nc2NS(=O)(=O)c2cccc(NC(=O)C(C)(C)N)c2)c1
GI50 [1]: 5.93 µM and 2.1 µM
TGI [1]: 20.7 µM and > 10 µM
GI50 [2]: 12.5 µM and > 10 µM
TGI [2]: 29 µM and > 10 µM
GI50 [3]: 13.2 µM and > 10 µM
TGI [3]: 29.1 µM and > 10 µM
GI50 [4]: 6.51 µM and 4.52 µM
TGI [4]: 20.8 µM and > 10 µM
GI50 [5]: 14.8 µM and > 10 µM
TGI [5]: 28.3 µM and > 10 µM
GI50 [6]: 5 µM and 1.89 µM
TGI [6]: 18.6 µM and > 10 µM
GI50 [7]: 5.68 µM and 4.24 µM
TGI [7]: 20.1 µM and > 10 µM
GI50 [8]: 12.1 µM and > 10 µM
TGI [8]: 25.1 µM and > 10 µM
GI50 [9]: 13 µM
TGI [9]: 26.6 µM
GI50 [10]: 1.9 µM and 2.03 µM
TGI [10]: 13.5 µM and > 10 µM

O=C(Nc1ccc(Oc2cccc(F)c2)c(Cl)c1)c1cnccn1
GI50 [1]: 1.29 µM
TGI [1]: 3.72 µM
GI50 [2]: 0.78 µM
TGI [2]: > 50 µM
GI50 [3]: 3 µM
TGI [3]: > 50 µM
GI50 [4]: 1.79 µM
TGI [4]: > 50 µM
GI50 [5]: 36.6 µM
TGI [5]: > 50 µM
GI50 [6]: 10.8 µM
TGI [6]: > 50 µM
GI50 [7]: 3.75 µM
TGI [7]: > 50 µM
GI50 [8]: 4.53 µM
TGI [8]: > 50 µM
GI50 [9]: 2.72 µM
TGI [9]: > 50 µM
GI50 [10]: 2.93 µM
TGI [10]: > 50 µM

COc1ccc(/C=C(\C(=O)NCc2cccnc2)S(=O)(=O)c2ccccc2)cc1OC
GI50 [1]: 2.01 µM
TGI [1]: 6.42 µM
GI50 [2]: 2.48 µM
TGI [2]: 8.59 µM
GI50 [3]: 3.01 µM
TGI [3]: 10.6 µM
GI50 [4]: 2.4 µM
TGI [4]: 6.67 µM
GI50 [6]: 4.1 µM
TGI [6]: 13.2 µM
GI50 [7]: 5.57 µM
TGI [7]: 18.1 µM
GI50 [8]: 3.03 µM
TGI [8]: 13.9 µM
GI50 [9]: 1.76 µM
TGI [9]: 3.74 µM
GI50 [10]: 2.69 µM
TGI [10]: 11.3 µM

CC1=C(C(=O)N(C)c2ccc(Cl)c(C(=O)OC(C)C)c2)SCCO1
TGI [1]: > 100 µM
TGI [2]: > 100 µM
TGI [3]: > 100 µM
TGI [4]: > 100 µM
TGI [5]: > 100 µM
TGI [6]: > 100 µM
TGI [7]: > 100 µM
TGI [8]: > 100 µM
TGI [9]: > 100 µM
TGI [10]: > 100 µM

OCCn1cnc2c(SCc3ccccc3)ncnc21
TGI [1]: > 100 µM
TGI [2]: > 100 µM
TGI [3]: > 100 µM
TGI [4]: > 100 µM
TGI [5]: > 100 µM
TGI [6]: > 100 µM
TGI [7]: > 100 µM
TGI [8]: > 100 µM
TGI [9]: > 100 µM
TGI [10]: > 100 µM

CC(=O)O[C@H]1CCC2[C@@H]3CCC4c5nonc5CC[C@]4(C)C3CC[C@@]21C (some centres not stated)
GI50 [1]: > 100 µM
TGI [1]: > 100 µM
TGI [2]: > 10 µM
TGI [3]: > 10 µM
TGI [4]: > 10 µM
TGI [5]: > 10 µM
TGI [6]: > 10 µM
TGI [7]: > 10 µM
TGI [8]: > 10 µM
GI50 [9]: > 100 µM
TGI [9]: > 100 µM
TGI [10]: > 10 µM

Cc1cnc(CNC(=O)c2c(=O)c3ccc(N4CCCN(C)CC4)nc3n3c2sc2ccccc23)cn1
GI50 [1]: 11.2 µM
TGI [1]: 31.3 µM
GI50 [2]: 6.49 µM
TGI [2]: 23 µM
GI50 [3]: 0.922 µM
TGI [3]: 6.1 µM
GI50 [4]: 0.162 µM
TGI [4]: 2.14 µM
GI50 [5]: 1.4 µM
TGI [5]: 10.3 µM
GI50 [6]: 12.5 µM
TGI [6]: 28.9 µM
GI50 [7]: 8.94 µM
TGI [7]: 23 µM
GI50 [8]: 17 µM
TGI [8]: 32.9 µM
GI50 [9]: 7.69 µM
TGI [9]: 28.1 µM
GI50 [10]: 3.03 µM
TGI [10]: 21.3 µM

NC(=O)c1ccc(-c2nc(-c3ccc4c(c3)OCO4)c(-c3ccccn3)[nH]2)cc1
GI50 [1]: > 25 µM and 29.6 µM
TGI [1]: > 25 µM and 69.1 µM
GI50 [2]: > 25 µM and 38.1 µM
TGI [2]: > 100 µM
GI50 [3]: > 25 µM and 46.3 µM
TGI [3]: > 100 µM
GI50 [4]: > 25 µM and 23.3 µM
TGI [4]: > 84.7 µM
GI50 [5]: > 25 µM and 31.1 µM
TGI [5]: > 100 µM
GI50 [6]: > 25 µM and 39.5 µM
TGI [6]: > 100 µM
GI50 [7]: > 25 µM and 47.7 µM
TGI [7]: > 100 µM
GI50 [8]: > 64.3 µM
TGI [8]: > 100 µM
GI50 [9]: > 25 µM and 35.1 µM
TGI [9]: > 100 µM
GI50 [10]: > 25 µM and 32.3 µM
TGI [10]: > 100 µM

CN(C)C(=O)c1ccc([N+](=O)[O-])cc1
TGI [1]: > 100 µM
TGI [2]: > 100 µM
TGI [3]: > 100 µM
TGI [4]: > 100 µM
TGI [5]: > 100 µM
TGI [6]: > 100 µM
TGI [7]: > 100 µM
TGI [8]: > 100 µM
TGI [9]: > 100 µM
TGI [10]: > 100 µM

NC(=O)Nc1cc(-c2cccc(F)c2)sc1C(=O)N[C@H]1CCCNC1
GI50 [1]: 0.101 µM and 0.291 µM
TGI [1]: 3.88 µM and 1.28 µM
GI50 [2]: 0.031 µM and 0.102 µM
TGI [2]: 0.476 µM and 0.525 µM
GI50 [3]: 0.038 µM and 0.193 µM
TGI [3]: 1.52 µM and 2.63 µM
GI50 [4]: 0.207 µM and 0.467 µM
TGI [4]: 3.32 µM and 4.22 µM
GI50 [5]: 0.222 µM and 0.31 µM
TGI [5]: > 10 µM and 17.3 µM
GI50 [6]: 0.132 µM and 0.329 µM
TGI [6]: 1.69 µM and 3.17 µM
GI50 [7]: 0.111 µM and 0.251 µM
TGI [7]: 1.58 µM and 1.38 µM
GI50 [8]: 2.36 µM and 1.91 µM
TGI [8]: > 10 µM and 9.82 µM
GI50 [9]: 0.388 µM and 0.353 µM
TGI [9]: > 5.1 µM and 3.43 µM
GI50 [10]: 0.213 µM and 0.304 µM
TGI [10]: 1.79 µM and 1.29 µM

CCOC(=O)C1CCCCN1C(=O)c1ccc(Nc2cnc3cc(C(F)(F)F)ccc3n2)cc1 (configuration not stated)
GI50 [1]: 19.1 µM
TGI [1]: > 100 µM
GI50 [2]: 14.9 µM
TGI [2]: 29 µM
GI50 [3]: 14.7 µM
TGI [3]: 28.6 µM
GI50 [4]: 13.3 µM
TGI [4]: 30.4 µM
GI50 [7]: 13.3 µM
TGI [7]: 28 µM
GI50 [8]: 15.7 µM
TGI [8]: 29.8 µM
GI50 [9]: 14.2 µM
TGI [9]: 27.7 µM
GI50 [10]: 14.2 µM
TGI [10]: 33.2 µM
